# Like-named read-outs stand apart in the source and are kept apart here.
# Legend:
# HLA-B*3901 allele = HLA-B*3901 allele (Homo sapiens, UniProt P01889, A182T/A93T/A95T/C349S/D138N/D201E/E176V/E187T/E204Q/K202T/Q94N/R155S/R180L/S121R/Y140F/Y91C); conditions: HLA-B*39:01
# HLA-B*1301 allele = HLA-B*1301 allele (Homo sapiens, UniProt P01889, A65T/A93T/A95T/D138N/D201E/D98Y/E176V/E204Q/E69M/E70A/G107R/K202T/L105A/L119I/N104T/N87E/Q94N/R106L/R155S/R169L/R180L/S101N/S121R/S35A/S48T/T118I/V127L/V36M/Y140L/Y91S); conditions: HLA-B*13:01
# HLA-B*1502 allele = HLA-B*1502 allele (Homo sapiens, UniProt P01889, A329T/A93T/A95T/C349S/D201E/D98Y/E187L/E204Q/E69M/E70A/H137Y/K202T/L119I/Q94N/R155S/R180L/S121R/S35A/S48A/T118I/V306I/V36M/Y140S/Y91S); conditions: HLA-B*15:02
# [1] = test system: combination of HLA-B*1301 allele, HLA-B*3802 allele and HLA-B*3901 allele; conditions: in vivo
# [2] = patients taking sulfasalazine; clinical setting; cited from earlier work
# [3] = test system: combination of HLA-B*1502 allele and HLA-B*3802 allele; conditions: in vivo
# HLA-B*3802 allele = HLA-B*3802 allele (Homo sapiens, UniProt P01889, A182T/A93T/A95T/C349S/D138N/D201E/D98Y/E176V/E187T/E204Q/G107R/K202T/L105A/N104T/Q94N/R106L/R155S/R180L/S101N/S121R/Y140F/Y91C); conditions: HLA-B*38:02
# [4] = test system: combination of HLA-B*1301 allele, HLA-B*1502 allele, HLA-B*3802 allele and HLA-B*3901 allele; conditions: in vivo
# [5] = test system: combination of HLA-B*1301 allele and HLA-B*3901 allele; conditions: in vivo
# [6] = Sulfasalazine-DRESS patients, listed as sulfasalazine
# [7] = Sulfasalazine-DRESS vs healthy control
# [8] = Sulfasalazine-DRESS vs healthy control, listed as sulfasalazine
# [9] = Sulfasalazine-SCAR vs healthy control
# [10] = Sulfasalazine-SJS/TEN vs healthy control
# [11] = Sulfasalazine-SJS/TEN patients, listed as sulfasalazine
# [12] = Sulfasalazine-SJS/TEN vs healthy control, listed as sulfasalazine
smiles,measurement,setting,value
O=C(O)c1cc(/N=N/c2ccc(S(=O)(=O)Nc3ccccn3)cc2)ccc1O [Sulfasalazine],Sensitivity (%),HLA-B*3901 allele; Sulfasalazine-DRESS,38.10%
same,Specificity (%),HLA-B*3901 allele; Sulfasalazine-DRESS,95.43%
same,SCAR N (%) carrying the allele,HLA-B*3901 allele; Sulfasalazine-DRESS patients,8/21
same,SCAR N (%) carrying the allele,HLA-B*3901 allele; [6],8 of 21
same,Odds Ratio (95% CI),HLA-B*3901 allele; [7],12.2
same,Odds Ratio (95% CI),HLA-B*3901 allele; [8],12.2 (4.6-32.5)
same,Sensitivity (%),HLA-B*3901 allele; Sulfasalazine-SCAR,28.13%
same,Specificity (%),HLA-B*3901 allele; Sulfasalazine-SCAR,95.43%
same,SCAR N (%) carrying the allele,HLA-B*3901 allele; Sulfasalazine-SCAR patients,9/32
same,Odds Ratio (95% CI),HLA-B*3901 allele; [9],8.2
same,Sensitivity (%),HLA-B*3901 allele; Sulfasalazine-SJS/TEN,0%
same,Specificity (%),HLA-B*3901 allele; Sulfasalazine-SJS/TEN,95.43%
same,SCAR N (%) carrying the allele,HLA-B*3901 allele; Sulfasalazine-SJS/TEN patients,0/11
same,Odds Ratio (95% CI),HLA-B*3901 allele; [10],1.1
same,Sensitivity (%),HLA-B*1301 allele; Sulfasalazine-DRESS,38.10%
same,Specificity (%),HLA-B*1301 allele; Sulfasalazine-DRESS,87.89%
same,SCAR N (%) carrying the allele,HLA-B*1301 allele; Sulfasalazine-DRESS patients,8/21
same,SCAR N (%) carrying the allele,HLA-B*1301 allele; [6],8 of 21
same,Odds Ratio (95% CI),HLA-B*1301 allele; [7],4.5
same,Odds Ratio (95% CI),HLA-B*1301 allele; [8],4.5 (1.8-11.0)
same,Sensitivity (%),HLA-B*1301 allele; Sulfasalazine-SCAR,28.13%
same,Specificity (%),HLA-B*1301 allele; Sulfasalazine-SCAR,87.89%
same,SCAR N (%) carrying the allele,HLA-B*1301 allele; Sulfasalazine-SCAR patients,9/32
same,Odds Ratio (95% CI),HLA-B*1301 allele; [9],2.8
same,Sensitivity (%),HLA-B*1301 allele; Sulfasalazine-SJS/TEN,9.09%
same,Specificity (%),HLA-B*1301 allele; Sulfasalazine-SJS/TEN,87.89%
same,SCAR N (%) carrying the allele,HLA-B*1301 allele; Sulfasalazine-SJS/TEN patients,1/11
same,Odds Ratio (95% CI),HLA-B*1301 allele; [10],0.7
same,Sensitivity (%),HLA-B*1502 allele; Sulfasalazine-DRESS,9.53%
same,Specificity (%),HLA-B*1502 allele; Sulfasalazine-DRESS,90.75%
same,SCAR N (%) carrying the allele,HLA-B*1502 allele; Sulfasalazine-DRESS patients,2/21
same,Odds Ratio (95% CI),HLA-B*1502 allele; [7],1.0
same,Sensitivity (%),HLA-B*1502 allele; Sulfasalazine-SCAR,21.88%
same,Specificity (%),HLA-B*1502 allele; Sulfasalazine-SCAR,90.75%
same,SCAR N (%) carrying the allele,HLA-B*1502 allele; Sulfasalazine-SCAR patients,7/32
same,Odds Ratio (95% CI),HLA-B*1502 allele; [9],2.7
same,Sensitivity (%),HLA-B*1502 allele; Sulfasalazine-SJS/TEN,45.45%
same,Specificity (%),HLA-B*1502 allele; Sulfasalazine-SJS/TEN,90.75%
same,SCAR N (%) carrying the allele,HLA-B*1502 allele; Sulfasalazine-SJS/TEN patients,5/11
same,SCAR N (%) carrying the allele,HLA-B*1502 allele; [11],5 out of 11
same,Odds Ratio (95% CI),HLA-B*1502 allele; [10],8.2
same,Odds Ratio (95% CI),HLA-B*1502 allele; [12],8.2 (2.4-27.4)
same,SCAR N (%) carrying the alleles,[1],22/32
same,Sensitivity (%),[1],68.75%
same,Specificity (%),[1],78.32%
same,patients developing obvious side effects,[2],Approximately 25%
same,Specificity (%),[3],83.74%
same,Sensitivity (%),HLA-B*3802 allele; Sulfasalazine-DRESS,0%
same,Specificity (%),HLA-B*3802 allele; Sulfasalazine-DRESS,92.45%
same,SCAR N (%) carrying the allele,HLA-B*3802 allele; Sulfasalazine-DRESS patients,0/21
same,Odds Ratio (95% CI),HLA-B*3802 allele; [7],0.3
same,Sensitivity (%),HLA-B*3802 allele; Sulfasalazine-SCAR,18.75%
same,Specificity (%),HLA-B*3802 allele; Sulfasalazine-SCAR,92.45%
same,SCAR N (%) carrying the allele,HLA-B*3802 allele; Sulfasalazine-SCAR patients,6/32
same,Odds Ratio (95% CI),HLA-B*3802 allele; [9],2.8
same,Sensitivity (%),HLA-B*3802 allele; Sulfasalazine-SJS/TEN,54.54%
same,Specificity (%),HLA-B*3802 allele; Sulfasalazine-SJS/TEN,92.45%
same,SCAR N (%) carrying the allele,HLA-B*3802 allele; Sulfasalazine-SJS/TEN patients,6/11
same,SCAR N (%) carrying the allele,HLA-B*3802 allele; [11],6 out of 11
same,Odds Ratio (95% CI),HLA-B*3802 allele; [10],14.7
same,Odds Ratio (95% CI),HLA-B*3802 allele; [12],14.7 (4.4-49.4)
same,SCAR N (%) carrying the alleles,[4],24/32
same,Sensitivity (%),[4],75.00%
same,Specificity (%),[4],60.35%
same,Specificity (%),[5],83.95%

# Reference: patent US20220259655A1, “METHODS FOR ASSESSING THE RISK OF DEVELOPING SEVERE CUTANEOUS ADVERSE DRUG REACTIONS INDUCED BY DISEASE-MODIFYING ANTIRHEUMATIC DRUGS, DETECTION KIT THEREOF AND USES THEREOF” (CHANG GUNG MEMORIAL HOSPITAL, LINKOU, priority 2019, published 2022)
